± gives the standard deviation of the averaged measurements.
How the values were obtained:
VINORELBINE = compound: CCC1=C[C@@H]2CN(C1)Cc1c([nH]c3ccccc13)[C@@](C(=O)OC)(c1cc3c(cc1OC)N(C)[C@H]1[C@@](O)(C(=O)OC)[C@H](OC(C)=O)[C@]4(CC)C=CCN5CC[C@]31[C@@H]54)C2 [VINORELBINE]; experiment: surviving fraction relative to DMSO-only wells; higher = less growth inhibition; conditions: exposure time: 5 days
In short: (§1)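 Surviving fraction was calculated by normalising CellTiter-Glo luminescence to the median of DMSO-only wells. Tumour cell lines in log phase were seeded in 384-well plates at 250–500 cells per well, and 24 hours later were exposed continuously for five days to inhibitors at 0.5, 1, 5, 10, 50, 100, 500 and 1000 nM.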

[1] = compound: Cc1nc(Nc2n[nH]c3c2CN(C(=O)N[C@H](CN(C)C)c2ccccc2)C3(C)C)c2sccc2n1; experiment: as above; conditions: exposure time: 5 days
In short: as §1

Test System | surviving fraction (VINORELBINE; 0.5 nM) | surviving fraction (VINORELBINE; 1 nM) | surviving fraction (VINORELBINE; 5 nM) | surviving fraction (VINORELBINE; 10 nM) | surviving fraction (VINORELBINE; 50 nM) | surviving fraction (VINORELBINE; 100 nM) | surviving fraction (VINORELBINE; 500 nM) | surviving fraction (VINORELBINE; 1000 nM) | surviving fraction ([1]; 0.5 nM) | surviving fraction ([1]; 1 nM) | surviving fraction ([1]; 5 nM) | surviving fraction ([1]; 10 nM) | surviving fraction ([1]; 50 nM) | surviving fraction ([1]; 100 nM) | surviving fraction ([1]; 500 nM) | surviving fraction ([1]; 1000 nM)
MDAMB468 BREAST | 1.02 ± 0.065 | 0.929 ± 0.019 | 0.645 ± 0.025 | 0.379 ± 0.041 | 0.0613 ± 0.007 | 0.0593 ± 0.005 | 0.117 ± 0.016 | 0.177 ± 0.0095 | 1.054 ± 0.0091 | 0.914 ± 0.085 | 0.213 ± 0.02 | 0.19 ± 0.011 | 0.096 ± 0.004 | 0.102 ± 0.0076 | 0.0473 ± 0.0076 | 0.0353 ± 0.0015
CADOES1 SOFT TISSUE | 0.972 ± 0.19 | 0.882 ± 0.043 | 0.928 ± 0.12 | 0.84 ± 0.073 | 0.877 ± 0.12 | 0.825 ± 0.038 | 0.201 ± 0.013 | 0.0913 ± 0.0064 | 0.919 ± 0.029 | 0.865 ± 0.035 | 0.953 ± 0.11 | 0.957 ± 0.14 | 0.764 ± 0.047 | 0.721 ± 0.093 | 0.401 ± 0.014 | 0.291 ± 0.026
HT1080 SOFT TISSUE | 1.02 ± 0.02 | 1.02 ± 0.016 | 0.903 ± 0.018 | 0.503 ± 0.01 | 0.0517 ± 0.0055 | 0.0363 ± 0.00058 | 0.038 ± 0.002 | 0.0363 ± 0.0015 | 0.98 ± 0.024 | 0.859 ± 0.018 | 0.295 ± 0.0038 | 0.249 ± 0.013 | 0.194 ± 0.0046 | 0.171 ± 0.0076 | 0.111 ± 0.015 | 0.087 ± 0.0078
SKBR3 BREAST | 0.957 ± 0.093 | 1.17 ± 0.035 | 0.532 ± 0.12 | 0.291 ± 0.058 | 0.146 ± 0.013 | 0.156 ± 0.019 | 0.179 ± 0.0087 | 0.182 ± 0.015 | 0.895 ± 0.11 | 0.834 ± 0.079 | 0.49 ± 0.027 | 0.498 ± 0.026 | 0.454 ± 0.063 | 0.419 ± 0.045 | 0.344 ± 0.021 | 0.1 ± 0.011
H23 LUNG | 1.03 ± 0.046 | 0.9937 ± 0.0096 | 1.04 ± 0.039 | 0.84 ± 0.014 | 0.205 ± 0.015 | 0.173 ± 0.011 | 0.22 ± 0.002 | 0.1743 ± 0.0015 | 0.989 ± 0.029 | 0.929 ± 0.051 | 0.578 ± 0.032 | 0.35 ± 0.025 | 0.26 ± 0.0067 | 0.23 ± 0.013 | 0.216 ± 0.0089 | 0.206 ± 0.023
SJSA1 BONE | 1.03 ± 0.021 | 1 ± 0.041 | 1.04 ± 0.076 | 0.971 ± 0.033 | 0.499 ± 0.029 | 0.211 ± 0.022 | 0.0877 ± 0.009 | 0.0907 ± 0.0081 | 0.972 ± 0.02 | 0.901 ± 0.011 | 0.747 ± 0.018 | 0.696 ± 0.057 | 0.448 ± 0.015 | 0.393 ± 0.025 | 0.289 ± 0.007 | 0.243 ± 0.0072
22RV1 PROSTATE | 1.04 ± 0.039 | 1.01 ± 0.057 | 0.916 ± 0.13 | 0.655 ± 0.12 | 0.12 ± 0.028 | 0.0623 ± 0.0038 | 0.0587 ± 0.012 | 0.06367 ± 0.00058 | 0.963 ± 0.14 | 0.783 ± 0.078 | 0.334 ± 0.035 | 0.321 ± 0.051 | 0.348 ± 0.018 | 0.313 ± 0.058 | 0.291 ± 0.058 | 0.27 ± 0.025
HS578T BREAST | 1.13 ± 0.09 | 0.976 ± 0.17 | 0.423 ± 0.021 | 0.276 ± 0.027 | 0.153 ± 0.019 | 0.138 ± 0.004 | 0.173 ± 0.011 | 0.185 ± 0.014 | 0.767 ± 0.024 | 0.713 ± 0.019 | 0.506 ± 0.064 | 0.504 ± 0.05 | 0.374 ± 0.056 | 0.37 ± 0.049 | 0.186 ± 0.029 | 0.095 ± 0.013
HOSMNG BONE | 0.938 ± 0.14 | 0.956 ± 0.1 | 0.963 ± 0.11 | 0.955 ± 0.15 | 0.694 ± 0.1 | 0.415 ± 0.028 | 0.112 ± 0.018 | 0.0593 ± 0.01 | 0.981 ± 0.063 | 0.995 ± 0.065 | 1.02 ± 0.11 | 0.944 ± 0.025 | 0.821 ± 0.042 | 0.622 ± 0.029 | 0.399 ± 0.024 | 0.253 ± 0.018
SIHA CERVIX | 1.09 ± 0.064 | 1.14 ± 0.13 | 1.12 ± 0.027 | 1.03 ± 0.064 | 0.324 ± 0.016 | 0.277 ± 0.085 | 0.341 ± 0.022 | 0.327 ± 0.055 | 0.827 ± 0.039 | 0.689 ± 0.052 | 0.555 ± 0.023 | 0.487 ± 0.026 | 0.419 ± 0.0098 | 0.391 ± 0.0081 | 0.262 ± 0.031 | 0.146 ± 0.017
143B BONE | 1 ± 0.02 | 1.016 ± 0.0057 | 1.016 ± 0.0071 | 0.864 ± 0.024 | 0.229 ± 0.0071 | 0.1625 ± 0.00071 | 0.039 ± 0.0028 | 0.0345 ± 0.00071 | 0.96 ± 0.021 | 0.969 ± 0.015 | 0.726 ± 0.032 | 0.494 ± 0.011 | 0.293 ± 0.033 | 0.259 ± 0.016 | 0.158 ± 0.0042 | 0.0825 ± 0.0035
CASKI CERVIX | 0.919 ± 0.041 | 0.911 ± 0.046 | 0.702 ± 0.014 | 0.188 ± 0.027 | 0.0597 ± 0.0076 | 0.087 ± 0.005 | 0.106 ± 0.012 | 0.1 ± 0.0083 | 0.713 ± 0.037 | 0.472 ± 0.0095 | 0.237 ± 0.0071 | 0.193 ± 0.0081 | 0.13 ± 0.013 | 0.0993 ± 0.012 | 0.0227 ± 0.0031 | 0.0183 ± 0.00058
DU4475 BREAST | 0.973 ± 0.088 | 1.01 ± 0.025 | 1.01 ± 0.14 | 0.906 ± 0.095 | 0.403 ± 0.091 | 0.211 ± 0.027 | 0.0703 ± 0.016 | 0.051 ± 0.015 | 0.654 ± 0.12 | 0.452 ± 0.065 | 0.138 ± 0.048 | 0.0743 ± 0.013 | 0.038 ± 0.0095 | 0.029 ± 0.0056 | 0.0257 ± 0.0045 | 0.0277 ± 0.006
YAMATO SYNOVIAL | 1.04 ± 0.06 | 1.08 ± 0.042 | 1 ± 0.024 | 0.646 ± 0.05 | 0.391 ± 0.036 | 0.36 ± 0.014 | 0.346 ± 0.015 | 0.397 ± 0.0053 | 0.784 ± 0.03 | 1.19 ± 0.074 | 0.432 ± 0.036 | 1.35 ± 0.091 | 0.354 ± 0.0056 | 1.42 ± 0.17 | 0.353 ± 0.024 | 1.39 ± 0.074
A549 LUNG | 0.982 ± 0.049 | 0.989 ± 0.049 | 0.979 ± 0.053 | 0.968 ± 0.045 | 0.461 ± 0.034 | 0.308 ± 0.023 | 0.228 ± 0.0085 | 0.274 ± 0.015 | 1.03 ± 0.051 | 0.952 ± 0.064 | 0.988 ± 0.064 | 0.578 ± 0.021 | 0.38 ± 0.033 | 0.311 ± 0.022 | 0.2537 ± 0.0015 | 0.208 ± 0.011
SUM149 BREAST | 1.07 ± 0.072 | 1.11 ± 0.038 | 1.03 ± 0.059 | 0.768 ± 0.076 | 0.052 ± 0.0027 | 0.0443 ± 0.0076 | 0.0563 ± 0.0047 | 0.061 ± 0.0046 | 0.863 ± 0.011 | 1.01 ± 0.02 | 0.178 ± 0.014 | 0.365 ± 0.037 | 0.124 ± 0.0069 | 0.145 ± 0.011 | 0.0783 ± 0.0083 | 0.117 ± 0.013
MCF7 BREAST | 0.932 ± 0.027 | 0.914 ± 0.025 | 0.861 ± 0.058 | 0.817 ± 0.022 | 0.466 ± 0.017 | 0.428 ± 0.027 | 0.357 ± 0.0083 | 0.221 ± 0.018 | 0.89 ± 0.077 | 0.857 ± 0.024 | 0.621 ± 0.036 | 0.746 ± 0.035 | 0.547 ± 0.01 | 0.546 ± 0.022 | 0.395 ± 0.019 | 0.486 ± 0.0057
MDAMB361 BREAST | 0.791 ± 0.062 | 0.786 ± 0.076 | 0.695 ± 0.056 | 0.603 ± 0.016 | 0.607 ± 0.03 | 0.566 ± 0.04 | 0.5787 ± 0.0021 | 0.502 ± 0.058 | 1.028 ± 0.0062 | 1.13 ± 0.074 | 1.1 ± 0.065 | 1.02 ± 0.072 | 0.837 ± 0.016 | 0.796 ± 0.054 | 0.5827 ± 0.004 | 0.238 ± 0.0081
SG28 HEADNECK | 1.17 ± 0.22 | 1.04 ± 0.061 | 0.998 ± 0.099 | 0.861 ± 0.13 | 0.589 ± 0.087 | 0.538 ± 0.11 | 0.521 ± 0.016 | 0.542 ± 0.071 | 0.97 ± 0.064 | 1 ± 0.056 | 0.818 ± 0.009 | 0.716 ± 0.039 | 0.667 ± 0.051 | 0.523 ± 0.063 | 0.186 ± 0.0036 | 0.049 ± 0.0053
SCC47 HEADNECK | 1.09 ± 0.13 | 1.06 ± 0.013 | 0.967 ± 0.055 | 0.693 ± 0.044 | 0.231 ± 0.023 | 0.1977 ± 0.0011 | 0.302 ± 0.022 | 0.289 ± 0.0068 | 1.06 ± 0.018 | 1.08 ± 0.033 | 0.815 ± 0.029 | 0.664 ± 0.074 | 0.47 ± 0.018 | 0.432 ± 0.044 | 0.292 ± 0.03 | 0.135 ± 0.023
